In patent publication US10344025B2, “GLS1 inhibitors for treating disease” (Board of Regents, The University of Texas System, priority 2014, dated 2019):

Experiments:
[1] = biological target: purified recombinant human GAC (GLS1) (Homo sapiens (Human), UniProt O94925); test: GLS1 Enzymatic Activity Assay (dual-coupled enzymatic assay, resorufin/Amplex UltraRed readout); type: biochemical;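 note: glutamate from GAC coupled via glutamate oxidase and peroxidase to resorufin, read as fluorescence (ex 530, em 590 nm) kinetically or at 20 min, four-parameter logistic IC50 fit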
Chain of purified recombinant human GAC (GLS1) (O94925 other isoform, or with tags, fused parts or gaps): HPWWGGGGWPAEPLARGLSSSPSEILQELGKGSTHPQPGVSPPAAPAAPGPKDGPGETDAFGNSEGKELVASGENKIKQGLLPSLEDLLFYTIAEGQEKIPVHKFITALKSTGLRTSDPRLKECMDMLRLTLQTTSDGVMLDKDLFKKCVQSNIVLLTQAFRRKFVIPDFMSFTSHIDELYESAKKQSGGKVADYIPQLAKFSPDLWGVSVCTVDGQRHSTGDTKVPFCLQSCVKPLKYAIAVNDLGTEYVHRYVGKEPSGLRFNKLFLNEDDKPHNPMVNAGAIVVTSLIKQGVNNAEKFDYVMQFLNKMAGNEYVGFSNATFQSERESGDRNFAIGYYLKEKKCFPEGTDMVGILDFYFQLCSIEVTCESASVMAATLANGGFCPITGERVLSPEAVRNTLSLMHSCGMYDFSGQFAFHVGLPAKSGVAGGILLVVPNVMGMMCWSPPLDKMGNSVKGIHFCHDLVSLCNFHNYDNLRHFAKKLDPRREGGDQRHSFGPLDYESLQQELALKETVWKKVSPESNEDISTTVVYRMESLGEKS

A549 cells = test: Proliferation Assay (A549 viability, Cell Titer Fluor, 72 hours); type: cell-based; conditions: Homo sapiens
Outline: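 Cell Titer Fluor fluorescence after 72 h compound treatment (0.5% DMSO, 37 °C, 5% CO2) of A549 cells plated 24 h earlier at 1000/well. Four-parameter logistic fitting gave IC50.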

SMILES	IC50 [1] [nM]	EC50 (A549 cells; A549, 72 h) [nM]	EC50 (A549 cells) [nM]
O=C(NCc1ccc(C(F)(F)F)nc1)c1cn(CCCCn2cc(C(=O)NCc3cncc(C(F)(F)F)c3)nn2)nn1 [Example 143, N-{[5-(trifluoromethyl)pyridin-3-yl]methyl}-1-{4-[4-({[6-(trifluoromethyl)pyridin-3-yl]methyl}carbamoyl)-1H-1,2,3-triazol-1-yl]butyl}-1H-1,2,3-triazole-4-carboxamide]	< 100	< 100	
O=C(NCc1ccccc1)c1nnc(CCCCc2ccc(NC(=O)[C@@H](O)c3ccccc3)nn2)s1 [Example 29, N-benzyl-5-(4-{6-[(2S)-2-hydroxy-2-phenylacetamido]pyridazin-3-yl}butyl)-1,3,4-thiadiazole-2-carboxamide]	< 100	< 100	
O=C(Cc1ccccn1)Nc1nnc(CCC(F)Cn2cc(C(=O)NCc3cc(C(F)(F)F)ccn3)nn2)s1 (centres unmarked) [Example 540, 1-(2-fluoro-4-(5-(2-(pyridin-2-yl)acetamido)-1,3,4-thiadiazol-2-yl)butyl)-N-((4-(trifluoromethyl)pyridin-2-yl)methyl)-1H-1,2,3-triazole-4-carboxamide]	< 100		< 100
CC(C)(C)OC(=O)N1CC(CNC(=O)c2cn(CCCCn3cc(C(=O)NCc4cccc(OC(F)(F)F)c4)nn3)nn2)C1 [Example 79, tert-butyl 3-{[(1-{4-[4-({[3-(trifluoromethoxy)phenyl]methyl}carbamoyl)-1H-1,2,3-triazol-1-yl]butyl}-1H-1,2,3-triazol-4-yl)formamido]methyl}azetidine-1-carboxylate]	< 100	< 100	
O=C(NCc1cccc(OC(F)(F)F)c1)c1cn(CCCCn2cc(C(=O)NCc3ccnc(C(F)(F)F)c3)nn2)nn1 [Example 122, 1-{4-[4-({[3-(trifluoromethoxy)phenyl]methyl}carbamoyl)-1H-1,2,3-triazol-1-yl]butyl}-N-{[2-(trifluoromethyl)pyridin-4-yl]methyl}-1H-1,2,3-triazole-4-carboxamide]	< 100	< 100	
CNC(=O)c1cn(CCC(F)Cn2cc(C(=O)NCc3cccc(CNC(=O)OC(C)(C)C)c3)nn2)nn1 (centres unmarked) [Example 166, tert-butyl N-[(3-{[(1-{2-fluoro-4-[4-(methylcarbamoyl)-1H-1,2,3-triazol-1-yl]butyl}-1H-1,2,3-triazol-4-yl)formamido]methyl}phenyl)methyl]carbamate]	< 100	100 to 500	
O=C(Cc1cccc(OC(F)(F)F)c1)Nc1nnc(CCCCn2cc(C(=O)N[C@H](CO)c3ccccc3)nn2)s1 [Example 23, N-[(1S)-2-hydroxy-1-phenylethyl]-1-[4-(5-{2-[3-(trifluoromethoxy)phenyl]acetamido}-1,3,4-thiadiazol-2-yl)butyl]-1H-1,2,3-triazole-4-carboxamide]	< 100	100 to 500	
O=C(NCc1ccc(C(F)(F)F)nc1)c1cn(CCCCn2cc(C(=O)NCc3cccc(OC(F)(F)F)c3)nn2)nn1 [Example 82, 1-{4-[4-({[3-(trifluoromethoxy)phenyl]methyl}carbamoyl)-1H-1,2,3-triazol-1-yl]butyl}-N-{[6-(trifluoromethyl)pyridin-3-yl]methyl}-1H-1,2,3-triazole-4-carboxamide]	< 100	< 100	
CNC(=O)c1nnc(CCCCc2ccc(NC(=O)Cc3cc(C(F)(F)F)ccn3)nn2)s1 [Example 229, N-methyl-5-(4-(6-(2-(4-(trifluoromethyl)pyridin-2-yl)acetamido)pyridazin-3-yl)butyl)-1,3,4-thiadiazole-2-carboxamide]	< 100	< 100	

More lines, main results first:

IC50 [1] [nM]	EC50 (A549 cells; A549, 72 h) [nM]	SMILES	EC50 (A549 cells) [nM]
100 to 500	500 to 5000	Cc1ccc(CC(=O)Nc2cn(CCCCn3cc(C(=O)NCc4cccnc4)nn3)nn2)cn1 [Example 322, 1-(4-{4-[2-(6-methylpyridin-3-yl)acetamido]-1H-1,2,3-triazol-1-yl}butyl)-N-(pyridin-3-ylmethyl)-1H-1,2,3-triazole-4-carboxamide]	
< 100	< 100	O=C(NCc1ccc(C2CC2)nc1)c1cn(CC(F)CCc2nnc(C(=O)NCc3cccc(C(F)(F)F)c3)s2)nn1 (centres unmarked) [Example 481, 5-[4-(4-{[(6-cyclopropylpyridin-3-yl)methyl]carbamoyl}-1H-1,2,3-triazol-1-yl)-3-fluorobutyl]-N-{[3-(trifluoromethyl)phenyl]methyl}-1,3,4-thiadiazole-2-carboxamide]	
< 100	< 100	COc1cccc(CNC(=O)c2cn(CCC(F)Cn3cc(C(=O)NCc4cc(C(F)(F)F)ccn4)nn3)nn2)c1 (centres unmarked) [Example 468, 1-[2-fluoro-4-(4-{[(3-methoxyphenyl)methyl]carbamoyl}-1H-1,2,3-triazol-1-yl)butyl]-N-{[4-(trifluoromethyl)pyridin-2-yl]methyl}-1H-1,2,3-triazole-4-carboxamide]	
< 100	100 to 500	CNC(=O)c1cn(CC(F)CCn2cc(NC(=O)Cc3cc(OC(F)(F)F)ccc3F)nn2)nn1 (centres unmarked) [Example 539, 1-[2-fluoro-4-(4-{2-[2-fluoro-5-(trifluoromethoxy)phenyl]acetamido}-1H-1,2,3-triazol-1-yl)butyl]-N-methyl-1H-1,2,3-triazole-4-carboxamide]	
500 to 5000	500 to 5000	O=C(Cc1ccccn1)Nc1cn(CCCCn2cc(C(=O)NCc3cccnc3)nn2)nn1 [Example 321, 1-(4-{4-[2-(pyridin-2-yl)acetamido]-1H-1,2,3-triazol-1-yl}butyl)-N-(pyridin-3-ylmethyl)-1H-1,2,3-triazole-4-carboxamide]	
< 100	< 100	CNC(=O)c1cn(CCCCc2ccc(NC(=O)CN3CCN(Cc4cccc(OC(F)(F)F)c4)CC3=O)nn2)nn1 [Example 247, N-methyl-1-(4-(6-(2-(2-oxo-4-(3-(trifluoromethoxy)benzyl)piperazin-1-yl)acetamido)pyridazin-3-yl)butyl)-1H-1,2,3-triazole-4-carboxamide]	
< 100	< 100	CNC(=O)c1cn(CCCCc2ccc(NC(=O)CN3CCN(c4ccc(OC(F)(F)F)cc4)CC3)nn2)nn1 [Example 232, N-methyl-1-(4-(6-(2-(4-(4-(trifluoromethoxy)phenyl)piperazin-1-yl)acetamido)pyridazin-3-yl)butyl)-1H-1,2,3-triazole-4-carboxamide]	
< 100	100 to 500	N#CCNC(=O)c1cn(CC(F)CCc2nnc(NC(=O)Cc3cccc(OC(F)(F)F)c3)s2)nn1 (centres unmarked) [Example 505, N-(cyanomethyl)-1-[2-fluoro-4-(5-{2-[3-(trifluoromethoxy)phenyl]acetamido}-1,3,4-thiadiazol-2-yl)butyl]-1H-1,2,3-triazole-4-carboxamide]	
< 100	< 100	O=C(Cc1cc(Cl)ccc1F)Nc1cn(CCCCn2cc(C(=O)NCc3cccc(OC(F)(F)F)c3)nn2)nn1 [Example 385, 1-(4-{4-[2-(5-chloro-2-fluorophenyl)acetamido]-1H-1,2,3-triazol-1-yl}butyl)-N-{[3-(trifluoromethoxy)phenyl]methyl}-1H-1,2,3-triazole-4-carboxamide]	
100 to 500	500 to 5000	CNC(=O)c1nnc(CCC(F)Cn2cc(C(=O)NCc3cc(C(F)(F)F)ccn3)nn2)s1 (centres unmarked) [Example 503, 5-{3-fluoro-4-[4-({[4-(trifluoromethyl)pyridin-2-yl]methyl}carbamoyl)-1H-1,2,3-triazol-1-yl]butyl}-N-methyl-1,3,4-thiadiazole-2-carboxamide]	
